Earlier results, collected in patent US9981895B1 (Parnative, Inc., priority 2015, dated 2018).

Experiments:
[1] = TBARS assay; CPC-purified compounds; Abbott et al. 2010
HeLa cell line = details: MTT assay, Abbott et al. 2010
RAW 264.7 cell line = details: MTT assay, Abbott et al. 2010

Molecule	dose at which oxidation was inhibited [1]	concentration at which cytotoxicity was demonstrated (HeLa cell line)	concentration at which cytotoxicity was demonstrated (RAW 264.7 cell line)
5-RE)-2-(4-hydroxyphenyl) ethenyl]-2-[(1E)-2-phenylprop-1-en-1-yl]benzene-1,3-diol [arachidin-3]	14 µM	55 µM	55 µM
CC(C)/C=C/c1c(O)cc(/C=C/c2ccc(O)c(O)c2)cc1O [arachidin-1]	7 µM	27 µM	27 µM
